Converted amounts (≈) assume the structure as drawn.
Experiments:
[1] = system: Serratia marcescens; assay: Antibacterial activity against Serratia marcescens ATCC 21074 after 18 hrs by CLSI broth microdilution method; assay type: functional; conditions: ATCC 21074, 18 h
[2] = system: Staphylococcus epidermidis; assay: Antibacterial activity against methicillin-sensitive Staphylococcus epidermidis 12-6 after 18 hrs by CLSI broth microdilution method; assay type: functional; conditions: 12-6, 18 h
[3] = system: Staphylococcus aureus; assay: Antibacterial activity against methicillin-sensitive Staphylococcus aureus ATCC 29213 after 18 hrs by CLSI broth microdilution method; assay type: functional; conditions: ATCC 29213, 18 h
[4] = system: Pseudomonas aeruginosa; assay: Antibacterial activity against Pseudomonas aeruginosa ATCC 27853 after 18 hrs by CLSI broth microdilution method; assay type: functional; conditions: ATCC 27853, 18 h
[5] = Cytotoxicity against HEK293T cells assessed as reduction in cell viability after 48 hrs by MTS assay; assay type: cell-based, HEK-293T; conditions: human
[6] = system: Pseudomonas aeruginosa; assay: Antibacterial activity against Pseudomonas aeruginosa 12-16 after 18 hrs by CLSI broth microdilution method; assay type: functional; conditions: 12-16, 18 h
[7] = system: Escherichia coli; assay: Antibacterial activity against extended-spectrum beta-lactamase deficient Escherichia coli 1515 after 18 hrs by CLSI broth microdilution method; assay type: functional; conditions: Escherichia coli, 1515, 18 h
[8] = system: Escherichia coli; assay: Antibacterial activity against extended-spectrum beta-lactamase harboring Escherichia coli 12-15 after 18 hrs by CLSI broth microdilution method; assay type: functional; conditions: 12-15, 18 h
[9] = system: Staphylococcus epidermidis; assay: Antibacterial activity against methicillin-sensitive Staphylococcus epidermidis ATCC 12228 after 18 hrs by CLSI broth microdilution method; assay type: functional; conditions: ATCC 12228, 18 h
[10] = system: Escherichia coli; assay: Antibacterial activity against extended-spectrum beta-lactamase deficient Escherichia coli ATCC 25922 after 18 hrs by CLSI broth microdilution method; assay type: functional; conditions: ATCC 25922, 18 h
[11] = system: Pseudomonas aeruginosa; assay: Antibacterial activity against Pseudomonas aeruginosa PAO1 after 18 hrs by CLSI broth microdilution method; assay type: functional; conditions: PAO1, 18 h
[12] = system: Klebsiella pneumoniae; assay: Antibacterial activity against extended-spectrum beta-lactamase harboring Klebsiella pneumoniae ATCC 700603 after 18 hrs by CLSI broth microdilution method; assay type: functional; conditions: Klebsiella pneumoniae, 700603, 18 h
[13] = system: Enterococcus faecalis; assay: Antibacterial activity against vancomycin-sensitive Enterococcus faecalis ATCC 29212 after 18 hrs by CLSI broth microdilution method; assay type: functional; conditions: ATCC 29212, 18 h
[14] = system: Staphylococcus aureus; assay: Antibacterial activity against methicillin-resistant Staphylococcus aureus ATCC 33591 after 18 hrs by CLSI broth microdilution method; assay type: functional; conditions: ATCC 33591, 18 h
[15] = system: Klebsiella aerogenes; assay: Antibacterial activity against Enterobacter aerogenes ATCC 13048 after 18 hrs by CLSI broth microdilution method; assay type: functional; conditions: ATCC 13048, 18 h
[16] = system: Klebsiella pneumoniae; assay: Antibacterial activity against new delhi metallo-beta-lactamase-1 harboring Klebsiella pneumoniae ATCC BAA-2146 after 18 hrs by CLSI broth microdilution method; assay type: functional; conditions: ATCC BAA-2146, 18 h
[17] = system: Enterobacter cloacae; assay: Antibacterial activity against Enterobacter cloacae ATCC 43560 after 18 hrs by CLSI broth microdilution method; assay type: functional; conditions: ATCC 43560, 18 h
[18] = system: Proteus mirabilis; assay: Antibacterial activity against Proteus mirabilis 12-6 after 18 hrs by CLSI broth microdilution method; assay type: functional; conditions: 12-6, 18 h
[19] = system: Staphylococcus aureus; assay: Antibacterial activity against methicillin-sensitive Staphylococcus aureus 12-28 after 18 hrs by CLSI broth microdilution method; assay type: functional; conditions: 12-28, 18 h
[20] = system: Enterococcus faecium; assay: Antibacterial activity against vancomycin-resistant Enterococcus faecium ATCC 700221 after 18 hrs by CLSI broth microdilution method; assay type: functional; conditions: ATCC 700221, 18 h
[21] = system: Enterococcus faecalis; assay: Antibacterial activity against vancomycin-sensitive Enterococcus faecalis 12-5 after 18 hrs by CLSI broth microdilution method; assay type: functional; conditions: 12-5, 18 h
[22] = system: Klebsiella pneumoniae; assay: Antibacterial activity against extended-spectrum beta-lactamase deficient Klebsiella pneumoniae 7 after 18 hrs by CLSI broth microdilution method; assay type: functional; conditions: Klebsiella pneumoniae, 7, 18 h
[23] = system: Enterococcus faecalis; assay: Antibacterial activity against vancomycin-resistant Enterococcus faecalis ATCC 51299 after 18 hrs by CLSI broth microdilution method; assay type: functional; conditions: ATCC 51299, 18 h
[24] = system: Staphylococcus aureus; assay: Antibacterial activity against methicillin-resistant Staphylococcus aureus 12-33 after 18 hrs by CLSI broth microdilution method; assay type: functional; conditions: 12-33, 18 h
[25] = system: Proteus vulgaris; assay: Antibacterial activity against Proteus vulgaris ATCC 29905 after 18 hrs by CLSI broth microdilution method; assay type: functional; conditions: ATCC 29905, 18 h
[26] = system: Citrobacter freundii; assay: Antibacterial activity against Citrobacter freundii ATCC 43864 after 18 hrs by CLSI broth microdilution method; assay type: functional; conditions: ATCC 43864, 18 h
[27] = system: Klebsiella pneumoniae; assay: Antibacterial activity against extended-spectrum beta-lactamase deficient Klebsiella pneumoniae 12-4 after 18 hrs by CLSI broth microdilution method; assay type: functional; conditions: 12-4, 18 h
[28] = system: Klebsiella pneumoniae; assay: Antibacterial activity against extended-spectrum beta-lactamase harboring Klebsiella pneumoniae 12-8 after 18 hrs by CLSI broth microdilution method; assay type: functional; conditions: 12-8, 18 h
[29] = system: Providencia rettgeri; assay: Antibacterial activity against Providencia rettgeri ATCC 31052 after 18 hrs by CLSI broth microdilution method; assay type: functional; conditions: ATCC 31052, 18 h
[30] = system: Acinetobacter calcoaceticus; assay: Antibacterial activity against Acinetobacter calcoaceticus ATCC 19606 after 18 hrs by CLSI broth microdilution method; assay type: functional; conditions: ATCC 19606, 18 h
[31] = system: Escherichia coli; assay: Antibacterial activity against extended-spectrum beta-lactamase deficient Escherichia coli 12-14 after 18 hrs by CLSI broth microdilution method; assay type: functional; conditions: 12-14, 18 h
[32] = system: Stenotrophomonas maltophilia; assay: Antibacterial activity against Stenotrophomonas maltophilia ATCC 13636 after 18 hrs by CLSI broth microdilution method; assay type: functional; conditions: ATCC 13636, 18 h
[33] = system: Staphylococcus aureus; assay: Antibacterial activity against methicillin-sensitive Staphylococcus aureus 15 after 18 hrs by CLSI broth microdilution method; assay type: functional; conditions: Staphylococcus aureus, 15, 18 h
[34] = system: Enterococcus faecium; assay: Antibacterial activity against vancomycin-sensitive Enterococcus faecium 12-3 after 18 hrs by CLSI broth microdilution method; assay type: functional; conditions: 12-3, 18 h
[35] = system: Staphylococcus epidermidis; assay: Antibacterial activity against methicillin-resistant Staphylococcus epidermidis 12-8 after 18 hrs by CLSI broth microdilution method; assay type: functional; conditions: 12-8, 18 h
[36] = system: Enterococcus faecium; assay: Antibacterial activity against vancomycin-resistant Enterococcus faecium 12-1 after 18 hrs by CLSI broth microdilution method; assay type: functional; conditions: 12-1, 18 h
[37] = system: Enterococcus faecalis; assay: Antibacterial activity against vancomycin-resistant Enterococcus faecalis 09-9 after 18 hrs by CLSI broth microdilution method; assay type: functional; conditions: 09-9, 18 h

Compound	MIC [1]	MIC [2]	MIC [3]	MIC [4]	CC50 at 48 h [5]	MIC [6]	MIC [7]	MIC [8]	MIC [9]	MIC [10]	MIC [11]	MIC [12]	MIC [13]	MIC [14]	MIC [15]	MIC [16]	MIC [17]	MIC [18]	MIC [19]	MIC [20]	further results
N=C(c1ccc2cc(-c3ccc(-c4cc5ccc(C(=N)N6CCCC6)cc5[nH]4)cc3)[nH]c2c1)N1CCCC1	64 µg/mL (≈ 128 µM)	0.25 µg/mL (≈ 0.499 µM)	2 µg/mL (≈ 3.99 µM)	> 128 µg/mL	4.15 µg/mL (≈ 8.29 µM)	64 µg/mL (≈ 128 µM)	4 µg/mL (≈ 7.99 µM)	4 µg/mL (≈ 7.99 µM)	0.25 µg/mL (≈ 0.499 µM)	4 µg/mL (≈ 7.99 µM)	> 128 µg/mL	16 µg/mL (≈ 32 µM)	4 µg/mL (≈ 7.99 µM)	2 µg/mL (≈ 3.99 µM)	8 µg/mL (≈ 16 µM)	8 µg/mL (≈ 16 µM)	8 µg/mL (≈ 16 µM)	8 µg/mL (≈ 16 µM)	2 µg/mL (≈ 3.99 µM)	4 µg/mL (≈ 7.99 µM)	MIC [21]: 4 µg/mL (≈ 7.99 µM); MIC [22]: 8 µg/mL (≈ 16 µM); MIC [23]: 8 µg/mL (≈ 16 µM); MIC [24]: 2 µg/mL (≈ 3.99 µM); MIC [25]: 8 µg/mL (≈ 16 µM); MIC [26]: 8 µg/mL (≈ 16 µM); MIC [27]: 8 µg/mL (≈ 16 µM); MIC [28]: 8 µg/mL (≈ 16 µM); MIC [29]: 8 µg/mL (≈ 16 µM); MIC [30]: 16 µg/mL (≈ 32 µM); MIC [31]: 4 µg/mL (≈ 7.99 µM); MIC [32]: 16 µg/mL (≈ 32 µM); MIC [33]: 2 µg/mL (≈ 3.99 µM); MIC [34]: 4 µg/mL (≈ 7.99 µM); MIC [35]: 1 µg/mL (≈ 2 µM); MIC [36]: 4 µg/mL (≈ 7.99 µM); MIC [37]: 4 µg/mL (≈ 7.99 µM)
CN(C)C(=N)c1ccc2cc(-c3ccc4cc(-c5cc6ccc(C(=N)N(C)C)cc6[nH]5)ccc4c3)[nH]c2c1	> 128 µg/mL	32 µg/mL (≈ 64.2 µM)	2 µg/mL (≈ 4.01 µM)	> 128 µg/mL	6.2 µg/mL (≈ 12.4 µM)	> 128 µg/mL	32 µg/mL (≈ 64.2 µM)	64 µg/mL (≈ 128 µM)	2 µg/mL (≈ 4.01 µM)	32 µg/mL (≈ 64.2 µM)	> 128 µg/mL	> 128 µg/mL	32 µg/mL (≈ 64.2 µM)	2 µg/mL (≈ 4.01 µM)	> 128 µg/mL	> 128 µg/mL	64 µg/mL (≈ 128 µM)	> 128 µg/mL	2 µg/mL (≈ 4.01 µM)	32 µg/mL (≈ 64.2 µM)	MIC [21]: 32 µg/mL (≈ 64.2 µM); MIC [22]: > 128 µg/mL; MIC [23]: 32 µg/mL (≈ 64.2 µM); MIC [24]: 2 µg/mL (≈ 4.01 µM); MIC [25]: 64 µg/mL (≈ 128 µM); MIC [26]: 32 µg/mL (≈ 64.2 µM); MIC [27]: > 128 µg/mL; MIC [28]: 128 µg/mL (≈ 257 µM); MIC [29]: 128 µg/mL (≈ 257 µM); MIC [30]: 128 µg/mL (≈ 257 µM); MIC [31]: 32 µg/mL (≈ 64.2 µM); MIC [32]: 32 µg/mL (≈ 64.2 µM); MIC [33]: 2 µg/mL (≈ 4.01 µM); MIC [34]: 16 µg/mL (≈ 32.1 µM); MIC [35]: 1 µg/mL (≈ 2.01 µM); MIC [36]: 32 µg/mL (≈ 64.2 µM); MIC [37]: 4 µg/mL (≈ 8.02 µM)
